Results as given in patent publication US6916843B1, “Anti-inflammatory actions of cytochrome P450 expoxygenase-derived eicosanoids” (The United States of America as represented by the …, priority 1999, dated 2005).

Molecular target: T1, CYP2J2 (Homo sapiens, UniProt P51589)
T1 construct: The CYP2J2 cDNA (1.9 kb) or GFP cDNA (0.75 kb) were subcloned into the plasmid pcDNA3.1; expressed in transfected cells; host or cells: bovine aortic endothelial cells (BAECs), transient transfection with pcDNA3.1/CYP2J2
T1 sequence (P51589 1-502): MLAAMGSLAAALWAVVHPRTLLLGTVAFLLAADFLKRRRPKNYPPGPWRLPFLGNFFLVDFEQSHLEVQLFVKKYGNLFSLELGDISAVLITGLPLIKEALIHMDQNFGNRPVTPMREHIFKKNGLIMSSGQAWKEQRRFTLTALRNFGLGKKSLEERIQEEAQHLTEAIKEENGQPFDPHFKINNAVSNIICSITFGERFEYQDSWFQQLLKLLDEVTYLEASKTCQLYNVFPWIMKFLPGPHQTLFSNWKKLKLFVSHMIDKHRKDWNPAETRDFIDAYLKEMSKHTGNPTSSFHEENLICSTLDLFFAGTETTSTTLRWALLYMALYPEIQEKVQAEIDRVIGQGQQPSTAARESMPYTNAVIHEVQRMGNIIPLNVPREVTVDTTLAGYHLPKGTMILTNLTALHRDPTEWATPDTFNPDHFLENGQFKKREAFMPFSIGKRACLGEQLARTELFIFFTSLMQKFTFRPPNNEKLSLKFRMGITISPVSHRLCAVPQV
Assay: Arachidonic acid epoxygenase metabolite formation in CYP2J2-transfected bovine aortic endothelial cells (HPLC)
Protocol: To study the formation of EETs by CYP2J2 in endothelial cells, we measured EET synthesis from bovine endothelial cells transfected with CYP2J2 cDNA. Early passage bovine aortic endothelial cells were grown to 60-70% confluence and transfected with either pcDNA3.1 or pcDNA3.1/CYP2J2 using Fugene™ 6 reagent (Boehringer Mannheim Corp.) according to the manufacturer's instructions. Using this method, the transfection efficiency was 10-20%. Forty-eight hours post-transfection, cells were washed twice with phosphate-buffered saline and incubated with freshly purified [^3H]arachidonic acid (185 Ci/mmol, 4-5 μCi/175 mm^2 flask) and unlabeled arachidonic acid (10 μM) was added before addition of arachidonic acid. At various time points, the media and cells were removed and extracted with diethyl ether. The combined organic phases were dried under a nitrogen stream, resolved by reverse-phase high performance liquid chromatography (HPLC) and quantified by liquid scintillation as described by Wu et al., 271 J. Biol. Chem. 3460 (1996). […]
These control GFP-transfected cells metabolized radiolabeled arachidonic acid to epoxygenase metabolites (EETs and DHETs) at a rate of ˜8 pmol/min/10^7 cells (FIG. 6). Endothelial cell arachidonic acid metabolism was determined as follows: Forty-eight hours after transfection with either pcDNA3.1/GFP or pcDNA3.1/CYP2J2, BAECs were incubated with freshly purified [5, 6, 8, 9, 11, 12, 14, 15-^3H]arachidonic acid (185 Ci/mmol, 4-5 μCi/175-mm^2 flask) in serurm-free culture medium at 37° C. for 30-120 min. […] The BAECs and culture medium were then collected and the reaction products extracted into ethyl ether, dried under a nitrogen stream, analyzed by reverse-phase HPLC, and quantified by on-line liquid scintillation using a Radiomatic Flo-One β detector (Radiomatic Instruments, Tampa, Fla.) as described (Wu et al., 271 J. Biol. Chem. 12551 (1996), Node et al., 285 Science 1276-1279 (1999)). […]

With “CYP2J2: CYP2J2 cDNA (1.9 kb) subcloned into plasmid pcDNA3.1, transfected into endothelial cells” the “rate of formation of epoxygenase metabolites (EETs and DHETs)” value was 17.8±2.3 pmol/minute/10^7 cells.
